Measurements as given in the METLIN SMRT retention time set (Domingo-Almenara et al. 2019).

Test: gradient 5% acetonitrile 3 min, to 50% in 2 min, to 85% in 15 min, held 3 min, 100 µL/min
Conditions: column: Zorbax Extend-C18 2.1 x 50 mm; eluents: water / acetonitrile, 0.1% formic acid
Method in brief: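 Mixtures of ~100 pure standards were chromatographed on a Zorbax Extend-C18 column (2.1 × 50 mm, 1.8 μm) at 100 μL/min using water and acetonitrile, each with 0.1% formic acid. Detection used a quadrupole time-of-flight mass spectrometer in positive and negative ionization mode, and data collection spanned 3 months. Retention time was obtained from adduct peaks picked computationally and each checked manually.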

| SMILES | RP-LC retention time |
| --- | --- |
| CC(C)N1CCC(OCCCNC(=O)CN2CCCc3nc(C4CC4)ncc3C2=O)CC1 | 576 s |
| NS(=O)(=O)c1ccc(CNC(=O)C2CCN(C(=O)NCc3cccs3)CC2)cc1 | 612 s |
| Cc1nn(C)c2c(=O)n(C(C)C(=O)NCc3ccc4c(c3)OCO4)ccc12 (stereo unspecified) | 715 s |
| COC(=O)c1cc(S(=O)(=O)N2CCCC2C(=O)N2CCN(c3cccc(Cl)c3)CC2)cn1C (stereo unspecified) | 929 s |
| COc1ccc(-c2nc(-c3ccc4c(c3)ncn4CCC(=O)N3CCCC3)no2)cc1 | 742 s |
| CNC(=O)NC1CCN(C(=O)c2cccc(F)c2)C1 (stereo unspecified) | 628 s |
| Cc1nc2cc3c(cc2n1CC(=O)NCCOc1ccc(Cl)cc1)OCCO3 | 674 s |
| CCc1ccc(CNC(=O)Cc2nnc(-c3ccc4ncccc4c3)o2)cc1 | 758 s |
| COC1CCC12CCN(C(=O)c1cnn(C)c1)CC2 (stereo unspecified) | 642 s |
| CCc1noc2cc(-c3ccccc3)n(C)c(=O)c12 | 950 s |
| Cc1ccc(N2CCN(C(=O)C3=CCN(Cc4cccc(C)c4)CC3)CC2)cc1 | 697 s |
| CC(=O)Nc1ccc(CC(=O)O)cc1 | 620 s |
| O=C(Nc1ccc(F)cc1F)C1CCN(C(=O)c2cccn2-c2cccnc2)CC1 | 696 s |
| Cc1ccc(-n2nc3c(N4CCCC(C(=O)N5CCOCC5)C4)nnc(C)c3c2C)cc1 (stereo unspecified) | 736 s |
| COc1cccc(S(=O)(=O)N2CCC(OCCOCc3ccccc3)CC2)c1 | 678 s |
| O=c1ccc(-c2ccncc2)nn1CCCNS(=O)(=O)c1cccs1 | 571 s |
| O=C(CN1CC=C(c2cnn(-c3ccccc3)c2)CC1)N1CCN(c2ccccc2F)CC1 | 732 s |
| Cc1ccc(-c2csc(Nc3ccc(Br)cn3)n2)cc1 | 1250 s |
| CC(C)CNC(=O)CCc1nc2ccccc2n(CC(=O)NCCc2ccc(Cl)cc2)c1=O | 855 s |

| SMILES | RP-LC retention time |
| --- | --- |
| O=C(NCc1nc(-c2ccc(-c3csc(-c4ccccc4)n3)cc2)no1)c1ccco1 | 1090 s |
| CCCn1c(C)cnc1C1CN(S(=O)(=O)c2cccc(Cl)c2)C1 | 669 s |
| CCCc1noc(-c2ccc3nnc(CC(=O)Nc4cc(C)cc(C)c4)n3c2)n1 | 947 s |
| CCOC(=O)CNC(=O)N1CCCC1c1ccc(C)cc1 (stereo unspecified) | 801 s |
| O=C(CN1CCc2ccccc2C1C(=O)N1CCCC1)Nc1ccc(Cl)cc1 (stereo unspecified) | 860 s |
| O=C(c1ccccc1Cl)N1CCCC(c2nnc(-c3cccs3)o2)C1 (stereo unspecified) | 775 s |
| CCC(=O)N1CCc2c(C(=O)NC3CCCCCC3)cccc21 | 887 s |
| CN1C(C)(C)CCCC1(C)C | 614 s |
| O=C(NCCn1c(C(F)(F)F)nc2cccnc21)c1ccc(Br)o1 | 740 s |
| COc1ccc(-c2ncc3c(n2)CCN(C(=O)Nc2ccc(F)c(Cl)c2)C3)cc1 | 1020 s |
| CCOC(=O)c1cn[nH]c1S(=O)(=O)N1CCC(C(N)=O)CC1 | 585 s |
| CCn1cc(CCNC(=O)Nc2ccccc2OC)c2cccnc21 | 718 s |
| CCOC(=O)c1cnc2c(-c3ccc(F)cc3)c(C)nn2c1N | 1020 s |
| Cc1nc(-c2ccnc(N3CCCC3)c2)no1 | 572 s |
| O=C(Nc1cccc(F)c1)N1CC(Oc2ccc(-c3nc(-c4ccccc4)no3)cc2)C1 | 1200 s |
| COCCN1C(=O)CCc2cc(NC(C)=O)ccc21 | 604 s |
| N#CCN(c1ccc(F)cc1)S(=O)(=O)c1ccc2nncn2c1 | 669 s |
| COC(=O)Nc1ccc(-c2nc(N3CCOCC3)c3cnn(C4CCN(C(=O)OC)CC4)c3n2)cc1 | 861 s |
| CN1C(=O)c2cc(S(=O)(=O)NC3CCCCC3)ccc2Oc2cccnc21 | 929 s |

Further lines, results first:

| RP-LC retention time | SMILES |
| --- | --- |
| 606 s | Cc1nn2c(-n3ccnc3C)c3c(nc2c1-c1ccccc1)CCC3 |
| 740 s | COCc1nnc(-c2ccc(F)cc2)o1 |
| 957 s | CCc1ccccc1N1C(=O)CN(S(=O)(=O)CC)CC1(C)C(=O)NC1CCCCCC1 (stereo unspecified) |
| 788 s | COc1cccc(CNC(=O)C2CCCN2S(=O)(=O)c2cc3c(cc2C)NC(=O)C(C)O3)c1 (stereo unspecified) |
| 814 s | O=C(COc1ccc(Cl)cc1)N1CCN(c2cc(-c3ccccc3)[nH]n2)CC1 |
| 888 s | CC(C)NC(=O)c1ccc(OCC2CCN(C(=O)c3c(F)cccc3Cl)CC2)cc1 |
| 921 s | CCN(CC)S(=O)(=O)c1ccc2c(c1)CC(C(=O)NCCC1=CCCCC1)N2C(C)=O (stereo unspecified) |
| 716 s | CC(C)n1c(CCNC(=O)CCc2ccccc2)nc2cccnc21 |
| 650 s | COc1ccc(Nc2c(C(=O)N3CCCC(C)C3)cnc3nc(C)ccc23)cc1 (stereo unspecified) |
| 932 s | CCn1c(=O)sc2cc(S(=O)(=O)N3CCC(C(=O)Nc4ccc(C)cc4C)CC3)ccc21 |
| 642 s | Cc1nnc2cc(N3CCN(S(=O)(=O)c4ccc(C#N)cc4)CC3)cnn12 |
| 782 s | Cc1ccc(Nc2c(-c3ccc(N(C)C)cc3)nc3ncccn23)c(C)c1 |
| 788 s | Cc1nn(C(C)C(=O)NCCc2ccco2)c(=O)c2nn(-c3ccccc3)c(C)c12 (stereo unspecified) |
| 994 s | Cc1occc1-c1nnc2sc(COc3ccccc3Cl)nn12 |
| 892 s | CCn1cc(C(=O)Nc2ccc(Cl)cc2)c(S(=O)(=O)N2CCSCC2)n1 |
| 909 s | Cc1nnc(-c2nnc(NCc3ccccc3Cl)c3ccccc23)o1 |
| 1300 s | Cc1cc(C)c(NC(=O)Cn2nc(N3CCC(C)CC3)c3ccccc3c2=O)c(C)c1 |
| 852 s | COc1ccccc1CNC(=O)C1CCCN(C(=O)c2cc3sccc3n2C)C1 (stereo unspecified) |
| 695 s | CCCN(C)C(=O)c1ccc(-n2cc(CNC(=O)C3CCC3)cn2)cc1 |
| 807 s | COc1ccccc1CNC(=O)C1CCN(S(C)(=O)=O)c2ccccc2O1 (stereo unspecified) |
| 926 s | Cc1ccc(NC(=O)C2CCCN(S(=O)(=O)c3c[nH]c(C(=O)N4CCCCCC4)c3)C2)cc1 (stereo unspecified) |
| 618 s | COc1ccccc1CNC(=O)Cn1cncc(C)c1=O |
| 573 s | CN(C)[C@@H]1CN(C(=O)c2cccc(Br)c2)C[C@H]1CO |
| 1130 s | COc1ccccc1-c1nnc(-c2cc(S(=O)(=O)N3CCCCCC3)ccc2Cl)o1 |
| 761 s | CCC(=O)N1CCc2cc(C(=O)NCc3ccc4c(c3)OCO4)ccc21 |
| 720 s | CN(C)C(=O)c1csc(S(=O)(=O)N2CCC(C(=O)NC3CCCCC3)CC2)c1 |
| 744 s | Cc1ccccc1NC(=O)N1CCN(c2ccc(=O)n(-c3ccccc3)n2)CC1 |

| RP-LC retention time | SMILES |
| --- | --- |
| 732 s | Cc1noc([C@@H]2CN(S(=O)(=O)c3ccc(Cl)s3)C[C@H]2C(N)=O)n1 |
| 856 s | Cc1nc(-c2noc(-c3cccc(F)c3)n2)cn1CC(=O)Nc1ccccc1 |
| 802 s | C[C@@H]1C(=O)O[C@H]2[C@H](O)[C@@]34C5C[C@@H](C(C)(C)C)[C@]36[C@H](OC(=O)[C@@H]6O)OC4(C(=O)O5)[C@@]12O (stereo partly specified) |
| 902 s | CCOCCCN1C(=O)CN(C2CCCCCC2)C(=O)C1c1ccc(OC)cc1 (stereo unspecified) |
| 975 s | Cc1ccc(NC(=O)Cn2nc3c(N4CCN(c5ccccc5)CC4)nccn3c2=O)cc1C |
| 906 s | CC1(C(=O)NCc2ccc(Cl)cc2)CN(S(C)(=O)=O)CC(=O)N1CCc1ccccc1 (stereo unspecified) |
| 590 s | O=C(CCNc1cnc2cnccn12)NCc1cccc(Cl)c1 |
| 886 s | COc1ccc(NC(=O)c2cc(C)n3nccc3n2)c(C)c1 |
| 600 s | COc1ccc(N2CC(C(=O)N3CCC(C(=O)N4CCC(C(N)=O)CC4)CC3)CC2=O)cc1 (stereo unspecified) |
| 1170 s | Cc1nc2cc(-c3noc(-c4cccc(Br)c4)n3)ccc2n(C)c1=O |
| 769 s | COC(=O)c1cc2c(=O)n(CCc3ccc(OC)c(OC)c3)ccc2nc1C |
| 571 s | O=C(NCC1CCCO1)c1coc(NC(=O)C2CC2)n1 (stereo unspecified) |
| 599 s | Cc1cc(C(=O)NCC2Cn3cccc3C(=O)N2C)nn1C (stereo unspecified) |
| 1240 s | Cc1ccc(-c2csc(Nc3ccccc3C)n2)cc1 |
| 949 s | Cc1ccc(C(=O)NC2CCCCCCC2)cc1NC(=O)C1=CSCCO1 |
| 643 s | O=C(Cn1c(=O)c(=O)n(Cc2ccccc2)c2ncccc21)NCc1ccccn1 |
| 598 s | Cc1noc(C)c1CC(=O)NCC1Cn2cccc2C(=O)N1C (stereo unspecified) |
| 1200 s | O=C(COc1cc(O)c2c(=O)cc(-c3ccccc3)oc2c1)OCc1ccccc1 |
| 602 s | CCNc1cc(N2CCC(CCC(=O)NCC(C)C)CC2)ncn1 |
| 678 s | Fc1cc(F)cc(-c2noc3ncnc(N4CCN(c5ccccn5)CC4)c23)c1 |
| 647 s | Cc1ccn2cc(-c3cccc(S(=O)(=O)N4CC(C)OC(C)C4)c3)nc2c1 (stereo unspecified) |
| 556 s | CN(C)c1ccc(CNC(=O)c2ccc3ncnc(N4CCCC4)c3c2)cc1 |
| 572 s | COc1cccc(CN2CCC3(CCC3O)CC2)c1OC (stereo unspecified) |
| 866 s | CC1(C)C(=O)N(CC(=O)Nc2ccc(F)cc2)c2ccccc21 |
| 664 s | COCCn1ccc2nc(C)c(C(=O)NCc3ccc4c(c3)OCO4)cc2c1=O |
| 944 s | CCCN1C(=O)COc2ccc(-c3csc(NC(=O)c4c(OC)cccc4OC)n3)cc21 |
